Read-outs that look alike come from different tables or passages of the source.
How the values were obtained:
[1] = dissolved in water; cited from earlier work
[2] = Bioavailability of coenzyme Q10; assay type: in vivo; conditions: oral administration, solubilised with poloxamer and resin or tocopherol by this method
[3] = unformulated active agent, in practice; cited from earlier work
[4] = cited from earlier work
[5] = pH 5; cited from earlier work

O=C1O[C@H]([C@@H](O)CO)C(O)=C1O [Vitamin C, ascorbic acid]
time until solution in water becomes light yellow [1]: 2 to 3 days

COC1=C(OC)C(=O)C(C/C=C(\C)CC/C=C(\C)CC/C=C(\C)CC/C=C(\C)CC/C=C(\C)CC/C=C(\C)CC/C=C(\C)CC/C=C(\C)CC/C=C(\C)CCC=C(C)C)=C(C)C1=O [coenzyme Q10]
bioavailability [2]: about 85% | bioavailability [3]: 10% | solubility in water [4]: not water-soluble

Abamectin
stability against hydrolysis in aqueous solutions [5]: stable
